{"source": "patent US6436924B1", "about": "“Antihistamine leukotriene combinations” (ASTA Medica AG, priority 2000, dated 2002)", "test_system": "nasal mucosal permeability in actively sensitized and topically provoked brown Norway rats", "assay": "Rhinitis model: nasal mucosal permeability (Evans Blue plasma extravasation) after ovalbumin provocation", "format": "in vivo", "source_text": "The following pharmacological investigation describes the action of azelastine and montelukast on their own and in combination on a rhinitis model on brown Norway rats. The brown Norway rats were actively sensitized by double i.p. injection of a suspension of ovalbumin and aluminum hydroxide in physiological saline solution on two successive days. Three weeks after sensitization, a catheter was tied into the trachea of the animals in orthograde manner under sodium thiopental anesthesia to maintain the respiration of the animals and a further catheter was advanced in a retrograde manner through the trachea up to the internal opening of the choanas for the perfusion of the nasal cavities and fixed. The nasal perfusate can thus trickle out through the nasal cavities and be accepted by a fraction collector. The test substances were either suspended in Tylose (montelukast) or dissolved in physiological saline solution (azelastine) and injected intraperitoneally 60 min before allergen provocation. PBS was perfused through the nasal cavity for 30 min using a roller pump (perfusion rate 0.5 ml/min) to rinse mucus away from the nose. In the case of topical application, the test substances are added to the perfusate in molar concentration and the solution is perfused through the nose for 30 min before allergen provocation. The plasma marker Evans Blue (1 ml/animal each of a 1% strength solution in PBS) was then injected into the jugular vein. The perfusion was collected during a 15 min break. The allergen provocation (challenge) was then carried out by perfusion of the nasal cavity with a solution of ovalbumin in PBS (10 mg/ml of ovalbumin in PBS) for 60 min, during which the perfusate was collected in the fraction collector in 15 min fractions. The total amount of the samples/animal was 5. The samples were centrifuged and then applied to microtiter plates and measured at a wavelength of 620 nm using the Digiscan photometer. The blank values were automatically subtracted. The course of action over 60 min was calculated using an AUC program. The substance action of the preparation group was calculated in % against vehicle controls.\nAn increased mucosal permeability after allergen provocation is to be assessed as a sign of the release of messengers such as histamine and leukotrienes. After antigen contact, this phenomenon occurs even in allergic people and is manifested by increased fluid secretion and nasal blockage.", "key": {"[1]": {"details": "0.1 mg/kg i.p., 60 min before allergen provocation"}, "[2]": {"details": "1 mg/kg i.p., 60 min before allergen provocation"}}, "data": [{"smiles": "COc1ccc2c(c1)c(O)nn2Cc1ccc(OCc2ccc3ccccc3n2)cc1.Cl.Cl", "note": "[AWD 23-115, 1-[4-(quinolin-2-ylmethoxy)benzyl]-5-methoxy-1H-indazol-3-ol dihydrochloride]", "values": [{"measurement": "dose-dependent inhibition of the vascular permeability", "setting": "dose range of 0.03 to 10 mg/kg i.p.", "result": "37-54%"}, {"measurement": "Inhibitory action in % (nasal mucosal permeability)", "setting": "topical application in the perfusate, 0.1 mmol/l", "result": 12, "unit": "%"}, {"measurement": "Inhibitory action in % (nasal mucosal permeability)", "setting": "topical application in the perfusate, 0.3 mmol/l", "result": 32, "unit": "%"}, {"measurement": "Inhibitory action in % (nasal mucosal permeability)", "setting": "topical application in the perfusate, 1 mmol/l", "result": 49, "unit": "%"}, {"measurement": "inhibition of the vascular permeability", "setting": "topical application, 0.3 μmol/l", "result": 32, "unit": "%"}, {"measurement": "inhibition of the vascular permeability", "setting": "topical application, 1 μmol/l", "result": 49, "unit": "%"}]}, {"smiles": "CN1CCCC(n2nc(Cc3ccc(Cl)cc3)c3ccccc3c2=O)CC1", "note": "(centres unmarked) [Azelastine]", "values": [{"measurement": "Inhibitory action in % (nasal mucosal permeability)", "setting": "0.01 mg/kg i.p., 60 min before allergen provocation", "result": 11, "unit": "%"}, {"measurement": "Inhibitory action in % (nasal mucosal permeability)", "setting": "[1]", "result": 39, "unit": "%"}, {"measurement": "Inhibitory action in % (nasal mucosal permeability)", "setting": "0.3 mg/kg i.p., 60 min before allergen provocation", "result": 42, "unit": "%"}, {"measurement": "Inhibitory action in % (nasal mucosal permeability)", "setting": "[2]", "result": 47, "unit": "%"}, {"measurement": "Inhibitory action in % (nasal mucosal permeability)", "setting": "topical application in the perfusate, 0.003 mmol/l", "result": 3, "unit": "%"}, {"measurement": "Inhibitory action in % (nasal mucosal permeability)", "setting": "topical application in the perfusate, 0.01 mmol/l", "result": 40, "unit": "%"}, {"measurement": "Inhibitory action in % (nasal mucosal permeability)", "setting": "topical application in the perfusate, 0.03 mmol/l", "result": 60, "unit": "%"}, {"measurement": "inhibition of the mucosal plasma extravasation", "setting": "topical application, concentrations of 0.003 to 0.03 μmol/l", "result": "strong inhibition"}]}, {"smiles": "O=C(O)[C@@H](c1ccc(OCc2ccc3ccccc3n2)cc1)C1CCCC1", "note": "[Bay X 1005]", "values": [{"measurement": "Inhibitory action in % (nasal mucosal permeability)", "setting": "[1]", "result": 31, "unit": "%"}]}, {"smiles": "CC(C)(O)c1ccccc1CC[C@@H](SCC1(CC(=O)O)CC1)c1cccc(/C=C/c2ccc3ccc(Cl)cc3n2)c1", "note": "[Montelukast]", "values": [{"measurement": "Inhibitory action in % (nasal mucosal permeability)", "setting": "[1]", "result": 7, "unit": "%"}, {"measurement": "Inhibitory action in % (nasal mucosal permeability)", "setting": "[2]", "result": 26, "unit": "%"}, {"measurement": "Inhibitory action in % (nasal mucosal permeability)", "setting": "3 mg/kg i.p., 60 min before allergen provocation", "result": 39, "unit": "%"}, {"measurement": "Inhibitory action in % (nasal mucosal permeability)", "setting": "10 mg/kg i.p., 60 min before allergen provocation", "result": 44, "unit": "%"}, {"measurement": "Inhibitory action in % (nasal mucosal permeability)", "setting": "30 mg/kg i.p., 60 min before allergen provocation", "result": 58, "unit": "%"}]}]}
